Data from PubChem BioAssay (NCI).
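Test compounds were applied to cells in 96-well plates for 48 hours at 5 doses. Definition used: TGI = concentration required for complete inhibition of growth.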

What was measured:
Assay in all cases: NCI tumour cell line growth inhibition, 48 h
786-0 renal = system: 786-0 renal
A549 NSCLC = system: A549 NSCLC
ACHN renal = system: ACHN renal
CAKI-1 renal = system: CAKI-1 renal
CCRF-CEM leukemia = system: CCRF-CEM leukemia
COLO 205 colon = system: COLO 205 colon
DU-145 prostate = system: DU-145 prostate
EKVX NSCLC = system: EKVX NSCLC
HCC-2998 colon = system: HCC-2998 colon
HCT-116 colon = system: HCT-116 colon
HCT-15 colon = system: HCT-15 colon
HL-60(TB) leukemia = system: HL-60(TB) leukemia
HOP-62 NSCLC = system: HOP-62 NSCLC
HOP-92 NSCLC = system: HOP-92 NSCLC
HS 578T breast = system: HS 578T breast
HT29 colon = system: HT29 colon
IGROV1 ovarian = system: IGROV1 ovarian
K-562 leukemia = system: K-562 leukemia
KM12 colon = system: KM12 colon
LOX IMVI melanoma = system: LOX IMVI melanoma
M14 melanoma = system: M14 melanoma
MALME-3M melanoma = system: MALME-3M melanoma
MCF7 breast = system: MCF7 breast
MDA-MB-231 breast = system: MDA-MB-231 breast
MDA-MB-435 = system: MDA-MB-435
MDA-N = system: MDA-N
MOLT-4 leukemia = system: MOLT-4 leukemia
NCI-H226 lung = system: NCI-H226 lung
NCI-H23 lung = system: NCI-H23 lung
NCI-H460 lung = system: NCI-H460 lung
NCI-H522 lung = system: NCI-H522 lung
NCI/ADR-RES ovarian = system: NCI/ADR-RES ovarian
OVCAR-3 ovarian = system: OVCAR-3 ovarian
OVCAR-4 ovarian = system: OVCAR-4 ovarian
OVCAR-5 ovarian = system: OVCAR-5 ovarian
OVCAR-8 ovarian = system: OVCAR-8 ovarian
PC-3 prostate = system: PC-3 prostate
RPMI-8226 leukemia = system: RPMI-8226 leukemia
RXF 393 renal = system: RXF 393 renal
SF-268 CNS = system: SF-268 CNS
SF-295 CNS = system: SF-295 CNS
SK-MEL-2 melanoma = system: SK-MEL-2 melanoma
SK-MEL-28 melanoma = system: SK-MEL-28 melanoma
SK-MEL-5 melanoma = system: SK-MEL-5 melanoma
SK-OV-3 ovarian = system: SK-OV-3 ovarian
SN12C renal = system: SN12C renal
SNB-19 CNS = system: SNB-19 CNS
SNB-75 CNS = system: SNB-75 CNS
SR leukemia = system: SR leukemia
SW-620 colon = system: SW-620 colon
T-47D breast = system: T-47D breast
U251 CNS = system: U251 CNS
UACC-257 melanoma = system: UACC-257 melanoma
UACC-62 melanoma = system: UACC-62 melanoma
UO-31 renal = system: UO-31 renal
A498 renal = system: A498 renal
BT-549 breast = system: BT-549 breast
SF-539 CNS = system: SF-539 CNS
TK-10 renal = system: TK-10 renal

Measured: TGI

CN(C)C(=O)c1nnsc1NN=O
> 100 µM: 786-0 renal | A549 NSCLC | ACHN renal | CAKI-1 renal | CCRF-CEM leukemia | COLO 205 colon | DU-145 prostate | EKVX NSCLC | HCC-2998 colon | HCT-116 colon | HCT-15 colon | HL-60(TB) leukemia | HOP-62 NSCLC | HOP-92 NSCLC | HS 578T breast | HT29 colon | IGROV1 ovarian | K-562 leukemia | KM12 colon | LOX IMVI melanoma | M14 melanoma | MALME-3M melanoma | MCF7 breast | MDA-MB-231 breast | MDA-MB-435 | MDA-N | MOLT-4 leukemia | NCI-H226 lung | NCI-H23 lung | NCI-H460 lung | NCI-H522 lung | NCI/ADR-RES ovarian | OVCAR-3 ovarian | OVCAR-4 ovarian | OVCAR-5 ovarian | OVCAR-8 ovarian | PC-3 prostate | RPMI-8226 leukemia | RXF 393 renal | SF-268 CNS | SF-295 CNS | SK-MEL-2 melanoma | SK-MEL-28 melanoma | SK-MEL-5 melanoma | SK-OV-3 ovarian | SN12C renal | SNB-19 CNS | SNB-75 CNS | SR leukemia | SW-620 colon | T-47D breast | U251 CNS | UACC-257 melanoma | UACC-62 melanoma | UO-31 renal

CNC(=S)NNC1=NCCCN1
> 100 µM: 786-0 renal | A498 renal | A549 NSCLC | ACHN renal | BT-549 breast | CAKI-1 renal | CCRF-CEM leukemia | COLO 205 colon | EKVX NSCLC | HCC-2998 colon | HCT-116 colon | HCT-15 colon | HL-60(TB) leukemia | HOP-62 NSCLC | HOP-92 NSCLC | HS 578T breast | HT29 colon | IGROV1 ovarian | K-562 leukemia | KM12 colon | LOX IMVI melanoma | M14 melanoma | MALME-3M melanoma | MCF7 breast | MDA-MB-231 breast | MDA-MB-435 | MDA-N | MOLT-4 leukemia | NCI-H226 lung | NCI-H23 lung | NCI-H460 lung | NCI-H522 lung | NCI/ADR-RES ovarian | OVCAR-3 ovarian | OVCAR-4 ovarian | OVCAR-5 ovarian | OVCAR-8 ovarian | PC-3 prostate | RPMI-8226 leukemia | RXF 393 renal | SF-268 CNS | SF-295 CNS | SF-539 CNS | SK-MEL-2 melanoma | SK-MEL-28 melanoma | SK-MEL-5 melanoma | SK-OV-3 ovarian | SNB-19 CNS | SNB-75 CNS | SR leukemia | SW-620 colon | T-47D breast | TK-10 renal | U251 CNS | UACC-257 melanoma | UACC-62 melanoma | UO-31 renal
